Experimental data as given in the supplement of paper PMC4862054.

How the values were obtained:
Conditions in all cases: incubation time: 72 h
Hs578T [1] = experiment: normalised response (% of control), CellTox Green; higher = less cell death (100 = DMSO, 0 = benzethonium chloride kill control)
Summary of the method: (§1)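 For each plate, 0.1 % DMSO was set to 100 and a positive kill control to 0. Breast cancer cell lines (20 µl suspension) were seeded into 384-well plates already holding compound at 5 concentrations in 10-fold steps over a 10,000-fold range chosen per compound, and incubated for 72 h. CellTox Green fluorescence at 485/520 nm was read before CellTiter-Glo luminescence, which followed 10 min at room temperature. Each value is the normalised signal at one concentration.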

MFM-223 [2] = experiment: as above
Summary of the method: as §1

MCF-10A [3] = experiment: as above
Summary of the method: as §1

DU-4475 [4] = experiment: as above
Summary of the method: as §1

MDA-MB-453 [5] = experiment: as above
Summary of the method: as §1

HCC1937 [6] = experiment: as above
Summary of the method: as §1

CAL-120 [7] = experiment: as above
Summary of the method: as §1

MDA-MB-468 [8] = experiment: as above
Summary of the method: as §1

CAL-85-1 [9] = experiment: as above
Summary of the method: as §1

HCC1599 [10] = experiment: as above
Summary of the method: as §1

BT-549 [11] = experiment: as above
Summary of the method: as §1

MDA-MB-231 [12] = experiment: as above
Summary of the method: as §1

HDQ-P1 [13] = experiment: as above
Summary of the method: as §1

CAL-148 [14] = experiment: as above
Summary of the method: as §1

CAL-51 [15] = experiment: as above
Summary of the method: as §1

HCC1143 [16] = experiment: as above
Summary of the method: as §1

MDA-MB-436 [17] = experiment: as above
Summary of the method: as §1

BT-474 [18] = experiment: as above
Summary of the method: as §1

Hs578T [19] = experiment: normalised response (% of control), CellTiter-Glo; higher = more viable cells (100 = DMSO, 0 = benzethonium chloride kill control)
Summary of the method: as §1

MFM-223 [20] = experiment: as above
Summary of the method: as §1

MCF-10A [21] = experiment: as above
Summary of the method: as §1

DU-4475 [22] = experiment: as above
Summary of the method: as §1

MDA-MB-453 [23] = experiment: as above
Summary of the method: as §1

HCC1937 [24] = experiment: as above
Summary of the method: as §1

SK-BR-3 = experiment: as above
Summary of the method: as §1

CAL-120 [25] = experiment: as above
Summary of the method: as §1

MDA-MB-468 [26] = experiment: as above
Summary of the method: as §1

CAL-85-1 [27] = experiment: as above
Summary of the method: as §1

HCC1599 [28] = experiment: as above
Summary of the method: as §1

BT-549 [29] = experiment: as above
Summary of the method: as §1

MDA-MB-231 [30] = experiment: as above
Summary of the method: as §1

HDQ-P1 [31] = experiment: as above
Summary of the method: as §1

CAL-148 [32] = experiment: as above
Summary of the method: as §1

CAL-51 [33] = experiment: as above
Summary of the method: as §1

HCC1143 [34] = experiment: as above
Summary of the method: as §1

MDA-MB-436 [35] = experiment: as above
Summary of the method: as §1

BT-474 [36] = experiment: as above
Summary of the method: as §1

Row | SMILES | normalised response (Hs578T [1]) [%] | normalised response (MFM-223 [2]) [%] | normalised response (MCF-10A [3]) [%] | normalised response (DU-4475 [4]) [%] | normalised response (MDA-MB-453 [5]) [%] | normalised response (HCC1937 [6]) [%] | normalised response (CAL-120 [7]) [%] | normalised response (MDA-MB-468 [8]) [%] | normalised response (CAL-85-1 [9]) [%] | normalised response (HCC1599 [10]) [%] | normalised response (BT-549 [11]) [%] | normalised response (MDA-MB-231 [12]) [%] | normalised response (HDQ-P1 [13]) [%] | normalised response (CAL-148 [14]) [%] | normalised response (CAL-51 [15]) [%] | normalised response (HCC1143 [16]) [%] | normalised response (MDA-MB-436 [17]) [%] | normalised response (BT-474 [18]) [%] | normalised response (Hs578T [19]) [%] | normalised response (MFM-223 [20]) [%] | normalised response (MCF-10A [21]) [%] | normalised response (DU-4475 [22]) [%] | normalised response (MDA-MB-453 [23]) [%] | normalised response (HCC1937 [24]) [%] | normalised response (SK-BR-3) [%] | normalised response (CAL-120 [25]) [%] | normalised response (MDA-MB-468 [26]) [%] | normalised response (CAL-85-1 [27]) [%] | normalised response (HCC1599 [28]) [%] | normalised response (BT-549 [29]) [%] | normalised response (MDA-MB-231 [30]) [%] | normalised response (HDQ-P1 [31]) [%] | normalised response (CAL-148 [32]) [%] | normalised response (CAL-51 [33]) [%] | normalised response (HCC1143 [34]) [%] | normalised response (MDA-MB-436 [35]) [%] | normalised response (BT-474 [36]) [%]
1 | C[C@]1(O)C[C@@H](c2nc(-c3ccc4ccc(-c5ccccc5)nc4c3)c3c(N)nccn32)C1 [Linsitinib] (1000 nM) | 93.5 | 96.5 | 75 | 94.9 | 102 | 124 | 94.9 | 75.2 | 97.3 | 94.6 | 108 | 102 | 87.9 | 105 | 104 | 76.7 | 73.8 | 91 | 101 | 94.5 | 48.5 | 92.5 | 83.8 | 98.9 | 69.8 | 88 | 79.6 | 85.5 | 92 | 88.6 | 85.9 | 76.8 | 101 | 94 | 88.7 | 95.5 | 78
2 | C[C@]12CC[C@@H]3c4ccc(OC(=O)N(CCCl)CCCl)cc4CC[C@H]3[C@@H]1CC[C@@H]2O [Estramustine] (1000 nM) |  | 93.1 | 55.8 | 96.5 | 97.3 | 67 | 93.9 | 182 | 107 | 90.2 | 98.6 | 94 | 70.6 | 46.8 | 84.7 | 103 | 93.3 | 89 | 95.9 | 86.2 | 92 | 88.5 | 93.5 | 95.5 | 87.4 | 99.9 | 87.1 | 93.3 | 111 | 104 | 94.4 | 103 | 78.6 | 80.7 | 93.5 | 98.5 | 96.1
3 | CC1(C)CCC(CN2CCN(c3ccc(C(=O)NS(=O)(=O)c4ccc(NCC5CCOCC5)c([N+](=O)[O-])c4)c(Oc4cnc5[nH]ccc5c4)c3)CC2)=C(c2ccc(Cl)cc2)C1 [ABT-199] (1000 nM) | 105 | 99.2 | 112 | 98 | 99.2 |  | 89.8 | 66.1 | 102 | 92.1 | 76.5 | 102 | 104 | 71.6 | 87.8 | 74.1 | 85 | 99.9 | 98.7 | 94.5 | 96.9 | 90.6 | 102 | 103 | 107 | 99.5 | 93.6 | 96.9 | 105 | 101 | 99.3 | 97.4 | 105 | 69.8 | 101 | 94.8 | 95.4
4 | C[C@]1(O)C[C@@H](c2nc(-c3ccc4ccc(-c5ccccc5)nc4c3)c3c(N)nccn32)C1 [Linsitinib] (10 nM) |  |  |  |  |  |  |  |  |  |  |  |  |  |  |  |  |  |  | 96.1 | 92.8 | 88.9 | 94.9 | 99.3 | 101 | 76.1 | 102 | 90.8 | 95 | 78.5 | 94.4 | 94.8 | 99 | 85.6 | 92.4 | 96.1 | 89.2 | 93.7
5 | Cn1cc(C2=Nc3cc(NC(=O)C(N)C4CCCCC4)cc4c3C2=CNNC4=O)cn1 (centres undefined) (1 nM) |  |  |  |  |  |  |  |  |  |  |  |  |  |  |  |  |  |  | 94 | 86.7 | 80 | 98.3 | 84.3 | 94.1 | 82.5 | 97.1 | 91.2 | 95.9 | 97.4 | 98.2 | 95 | 91.4 | 91.3 | 103 | 86.8 | 86.7 | 93.8
6 | CC(=O)N(O)CCCCCNC(=O)CCC(=O)N(O)CCCCCNC(=O)CCC(=O)N(O)CCCCCN [Deferoxamine] (10 nM) |  |  |  |  |  |  |  |  |  |  |  |  |  |  |  |  |  |  | 97 | 96.9 | 91.4 | 92.3 | 90.2 | 101 | 99 | 97.4 | 98.2 | 93 | 110 | 106 | 91.5 | 105 | 88.3 | 87.7 | 102 | 96.3 | 94.5
7 | Cc1ccc([N+](=O)[O-])cc1S(=O)(=O)N(C)/N=C/c1cnc2ccc(Br)cn12 [PIK-75] (10 nM) |  |  |  |  |  |  |  |  |  |  |  |  |  |  |  |  |  |  | 91.5 | 92.7 | 108 | 97 | 79.2 | 90.3 | 74.4 | 86.8 | 82.2 | 89.3 | 96.9 | 101 | 88.9 | 95.5 | 90.3 | 79.1 | 90.2 | 99.1 | 83.5
8 | O=C1CN2Cc3c(ccc(Cl)c3Cl)N=C2N1 [Anagrelide] (10 nM) |  |  |  |  |  |  |  |  |  |  |  |  |  |  |  |  |  |  | 97.5 | 99.2 | 103 | 101 | 102 | 94.8 | 94.2 | 96.5 | 100 | 93.8 | 100 | 101 | 97 | 98.7 | 93.9 | 115 | 103 | 95.2 | 95.5
9 | C[C@]12CC[C@@H]3c4ccc(OC(=O)N(CCCl)CCCl)cc4CC[C@H]3[C@@H]1CC[C@@H]2O [Estramustine] (1 nM) |  |  |  |  |  |  |  |  |  |  |  |  |  |  |  |  |  |  | 95.5 | 88 | 86.5 | 89.3 | 94.6 | 93.1 | 90 | 97.6 | 88.2 | 95 | 109 | 97 | 94.7 | 100 | 80.3 | 118 | 96.4 | 106 | 95.3
10 | COc1cc(F)c(F)c(Nc2ccc(I)cc2F)c1NS(=O)(=O)C1(C[C@H](O)CO)CC1 [Refametinib] (10 nM) |  |  |  |  |  |  |  |  |  |  |  |  |  |  |  |  |  |  | 96.5 | 87.9 | 58.5 | 92 | 101 | 97.9 | 79.6 | 99.5 | 87.2 | 90.7 | 109 | 96.5 | 94.4 | 89.2 | 86.9 | 130 | 95.8 | 90.7 | 95.5
11 | Cn1cc(C2=Nc3cc(NC(=O)C(N)C4CCCCC4)cc4c3C2=CNNC4=O)cn1 (centres undefined) (10 nM) |  |  |  |  |  |  |  |  |  |  |  |  |  |  |  |  |  |  | 94.3 | 90.4 | 84.6 | 95.3 | 91.7 | 96.2 | 77.2 | 90.9 | 90.6 | 93.3 | 93.4 | 95.2 | 91.2 | 91.7 | 87.3 | 134 | 90.4 | 89.4 | 94
12 | CC1(C)CNc2cc(NC(=O)c3cccnc3NCc3ccncc3)ccc21 [Motesanib] (10 nM) |  |  |  |  |  |  |  |  |  |  |  |  |  |  |  |  |  |  | 98.3 | 93.7 | 93.9 | 99.4 | 106 | 99.6 | 76.2 | 97.9 | 96.8 | 92.9 | 101 | 95.3 | 91.2 | 93.9 | 87.4 | 123 | 98.2 | 99.4 | 105
13 | CC[C@@H]1C(=O)OC[C@@H]1Cc1cncn1C [Pilocarpine] (40 nM) |  |  |  |  |  |  |  |  |  |  |  |  |  |  |  |  |  |  | 98.1 | 96.1 | 98.1 | 102 | 106 | 97.6 | 89.9 | 94.2 | 94.7 | 103 | 81 | 96.1 | 97.4 | 98.3 | 96.8 | 127 | 103 | 94 | 94.3
